According to US11649431B2, “Cortical interneurons and other neuronal cells produced by the directed differentiation of pluripotent and multipotent cells” (MEMORIAL SLOAN-KETTERING CANCER CENTER, priority 2013, dated 2023):

B1: DKK1: recombinant DKK1 (Dickkopf protein 1), inhibitor of canonical Wnt signaling (protein, UniProt O94907 32-266, looked up)
Dickkopf-related protein 1: TLNSVLNSNAIKNLPPPLGGAAGHPGSAVSAAPGILYPGGNKYQTIDNYQPYPCAEDEECGTDEYCASPTRGGDAGVQICLACRKRRKRCMRHAMCCPGNYCKNGICVSSDQNHFRGEIEETITESFGNDHSTLDGYSRRTTLSSKMYHTKGQEGSVCLRSSDCASGLCCARHFWSKICKPVLKEGQVCTKHRRKGSHGLEIFQRCYCGEGLSCRIQKDHHQASNSSRLHTCQRH

Assays:
[1] = tested on: motor neurons (MNs); settings: trophic factors removed, 72 hr; cited from earlier work
[2] = tested on: colon carcinoma cell line DLD-1; settings: catenin-dependent colon carcinoma cell line; cited from earlier work
[3] = tested on: human ESC (WA-09, HES-3) and iPS cells (C72, SeV6); experiment: FOXG1 / PAX6 induction during neural differentiation of hPSCs (immunofluorescence quantification); type: cell-based; settings: for PAX6 expression after addition of Wnt antagonist to dual SMAD inhibition protocol: HES-3 (NKX2.1::GFP) line, FIG. 1C; for FOXG1 expression in LSB-treated cultures: Wnt antagonist added to LSB dual SMAD inhibition, XAV939 2 μM, DKK1 250 ng/ml
Text: Human ESC (lines WA-09, HES-3 (NKX2.1::GFP) and iPS cells (C72, SeV6) were maintained on mouse embryonic fibroblasts (MEFs) as described previously and dissociated with Accutase (Innovative Cell Technologies) for differentiation or dispase for passaging (Chambers et al., Nat Biotechnol 27:275-280 (2009)). Media used for differentiation included KSR-medium, N2 medium (DMEM/F12 with NaHCO3, N2B supplement (Stem Cell Technologies), and Neurobasal media with B27 (Gibco) and N2 supplements (Invitrogen) as described previously. Kriks et al., Nature 480:547-551 (2011). The small molecules compounds used included: XAV939 (2 μM; Stemgent), LDN193189 (100 nM; Stemgent), SB431542 (10 μM; Tocris), and Purmorphamine (1-2 μM; Calbiochem), ascorbic acid (200 μM) and dibutyryl-cyclic AMP (dbcAMP, 200 μM; both from Sigma). Recombinant growth factors: SHH (C25II; 50-500 ng/ml), Noggin (125 ng/ml), DKK1 (250 ng/ml), and BDNF (10 ng/ml) were purchased from R&D Systems or for FGF2 (10 ng/ml) from Promega and used at the concentrations indicated in the manuscript.
Cultures were fixed in 4% paraformaldehyde in phospate-buffered saline and processed for immunofluorescent staining and confocal microscopy. Secondary antibodies used for primary antibody detection were species-specific Alexa-dye conjugates (Invitrogen). For primary antibodies, we used antibodies to rabbit FOXG1 (gift from Eseng Lai); mouse PAX6 (DSHB); mouse NKX2.1 (Labvision); goat NKX2.1 (C-20, Santa Cruz); rabbit OLIG2 (Chemicon); goat FOXA2 (Santa Cruz); rabbit LHX6 (Abeam); mouse RAX (Abnova); rabbit GAPDH (Thermo Scientific); goat DCX (Santa Cruz); mouse TUJ1 (Covance); rabbit GABA (Sigma); mouse Nestin (Thermo Scientific); rabbit KI67 (Labvision); mouse KI67 (Dako); rabbit Calbindin (Chemicon); mouse Calretinin (Swant); chick GFP (Abeam); goat Chat (Chemicon); rat somatostatin (Chemicon); mouse TH (Abeam); rabbit NOS (Swant); mouse Parvalbumin (Chemicon); mouse PSD-95 (Zymed); guinea-pig VGLUT1 (Synaptic systems); rabbit VGAT (Synaptic systems); and mouse Gephyrin (Synaptic Systems).
FOXG1 and PAX6 quantification: Using a 20× objective, 25 fields were imaged from 3 wells and from 4 independent differentiation studies. The number of DAPI+ nuclei was used as the denominator and either FOXG1+ nuclei or PAX6+ nuclei were used for the numerator. NKX2.1::GFP co-labeling: Using a 20× objective, 25-30 fields were imaged from 4 wells from 4 independent differentiations. The number of NKX2.1::GFP+ cells was used as the denominator and the numerator chosen for each analyzed marker. As a control for each marker, secondary antibody in the absence of primary antibody was used as a negative control to designate signal specificity.

[4] = tested on: SW480 cells; settings: cited from earlier work

Row | Molecule | healthy survival of MNs [1] | proliferation of DLD-1 cells [2] | effect on FOXG1 induction across independent hESC (HES-3, WA-09) and human iPSC lines (C72, SeV6) ([3]; FIG. 1E) | PAX6 expression after addition of Wnt antagonist to dual SMAD inhibition protocol [3] | FOXG1 expression in LSB-treated cultures [3] | degradation of β-catenin [4] | protein levels of the axin-GSK3β complex [4]
1 | O=C1Cc2c([nH]c3ccc(Br)cc23)-c2ccccc2N1 [kenpaullone] | impressive ability to prolong | – | – | – | – | – | –
2 | Oc1nc(-c2ccc(C(F)(F)F)cc2)nc2c1CSCC2 [XAV939, 3,5,7,8-Tetrahydro-2-[4-(trifluoromethyl)phenyl]-4H-thiopyrano[4,3-d]pyrimidin-4-one] | – | inhibits proliferation | consistent | did not result in a loss | greatly enhanced | promotes the degradation | increases
3 | B1 | – | – | – | did not result in a loss | greatly enhanced | – | –
